# Data: patent US20070037752A1, “Novel alanyl-amino peptidase inhibitors for functionally influencing different cells and treating immunological, inflammatory, neuronal, and other diseases” (priority 2003, published 2007)
# pIC50: −log10 of the molar value.
# Target: alanyl aminopeptidases (APN) (Homo sapiens, UniProt P15144)
# Assay: Inhibition of alanyl aminopeptidase enzymatic activity, fluorogenic substrate (Ala)2-rhodamine 110
# Type: biochemical
# Details: Table 2; read-out: IC50APN
# Experimental: The inhibition characteristics measured are referred to as IC-50 values or ID50 values (the latter marked with “*”) for said enzyme. The enzymatic activity was determined by means of the fluorogenic substrate/product (Ala)2-rhodamine 110.
# Sequence of alanyl aminopeptidases (APN) (P15144 whole entry, species assumed): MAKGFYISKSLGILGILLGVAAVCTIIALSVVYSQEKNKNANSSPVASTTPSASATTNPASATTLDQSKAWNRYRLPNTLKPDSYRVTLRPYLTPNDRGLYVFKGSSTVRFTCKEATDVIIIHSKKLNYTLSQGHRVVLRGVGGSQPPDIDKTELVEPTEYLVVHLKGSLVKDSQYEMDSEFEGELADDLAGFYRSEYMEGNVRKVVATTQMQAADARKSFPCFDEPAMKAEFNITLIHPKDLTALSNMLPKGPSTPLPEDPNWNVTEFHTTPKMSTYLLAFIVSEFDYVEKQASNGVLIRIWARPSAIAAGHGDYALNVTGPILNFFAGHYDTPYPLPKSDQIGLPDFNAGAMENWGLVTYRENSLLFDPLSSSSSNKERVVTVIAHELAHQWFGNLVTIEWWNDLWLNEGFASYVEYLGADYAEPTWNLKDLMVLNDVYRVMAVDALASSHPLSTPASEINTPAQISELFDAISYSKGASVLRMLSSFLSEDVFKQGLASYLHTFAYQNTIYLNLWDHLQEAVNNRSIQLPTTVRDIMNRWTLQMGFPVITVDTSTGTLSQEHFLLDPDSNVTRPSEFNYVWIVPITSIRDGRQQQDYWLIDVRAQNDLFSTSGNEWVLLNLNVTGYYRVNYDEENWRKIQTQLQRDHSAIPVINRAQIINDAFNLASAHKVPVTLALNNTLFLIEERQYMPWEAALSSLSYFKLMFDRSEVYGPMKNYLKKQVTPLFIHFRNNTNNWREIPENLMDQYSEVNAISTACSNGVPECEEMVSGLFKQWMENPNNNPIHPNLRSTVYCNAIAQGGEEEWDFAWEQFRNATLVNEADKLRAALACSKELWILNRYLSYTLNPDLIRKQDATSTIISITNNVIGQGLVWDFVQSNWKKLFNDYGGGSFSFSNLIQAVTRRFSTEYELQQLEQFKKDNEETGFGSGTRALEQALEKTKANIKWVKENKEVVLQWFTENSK
row,SMILES,pIC50
1,Nc1nonc1-n1nnc(C(=O)N/N=C/c2ccco2)c1-c1ccccc1 [A2.008],4.33
2,CCCCc1noc2c1/C(=N/O)CC(c1ccccc1)C2 (stereo not drawn) [A2.001],5.66

# Same assay, conditions: Table 3, starred values = ID50; read-out: ID50 APN (values marked with *)
row,SMILES,pIC50
1,CCOC(=O)c1nc[nH]c1N [A3.007],5.59
2,CCOC(=O)c1c(-c2ccccc2)c[nH]c1N [A3.336],3.77
3,COc1ccc(CSCC(=O)N/N=C/c2ccco2)cc1 [A3.291],4.18
4,Cn1cccc1CC(=O)N/N=C\c1ccco1 [A3.320],3.95
5,O=C(O)CC1S/C(=N/N=C/c2ccco2)NC1=O (stereo not drawn) [A3.254],4.32
6,Cc1ccc(/C=C(\NC(=O)c2ccccc2)C(=O)NCCN2CCOCC2)o1 [A3.273],4.26

# Same assay, conditions: Table 3, unstarred values; read-out: IC50APN
row,SMILES,pIC50
1,CC1CCN(S(=O)(=O)c2ccc3c(c2)C(Cl)(Cl)C(=O)N3)CC1 [A3.224],4.43
2,Cc1ccc(/C=C(\NC(=O)c2ccccc2)C(=O)NC2CC2)o1 [A3.073],4.81
3,CCOC(=O)CCCCC(=O)c1c(C)n(C(=O)c2ccc(N3C(=O)CCC3=O)cc2)c(=O)n1C(=O)c1ccc(N2C(=O)CCC2=O)cc1 [A3.072],4.81
4,COc1cc(/C=N/NC(=O)c2cc(-c3ccco3)n[nH]2)cc(OC)c1OC [A3.083],4.77
5,Cc1ccc(/C=N/NC(=O)COc2ccccc2C)o1 [A3.128],4.65
6,Cc1ccc(/C=N/NC(=O)c2ccc(F)cc2)o1 [A3.207],4.46
7,Cc1ccccc1S(=O)(=O)Nc1cccc(C(=O)N/N=C/c2ccco2)c1 [A3.097],4.72
8,COc1cc(/C=N/NC(=O)/C(=C/c2cccs2)NC(=O)c2ccccc2)cc([N+](=O)[O-])c1O [A3.152],4.60
9,COc1ccccc1C(=O)N/N=C/c1ccco1 [A3.243],4.35
10,CCOC(=O)C1=C2SCC(=O)N2C(N)=C(C#N)C1 [A3.139],4.64
11,NNC(=O)Cn1c2ccccc2n2cc(-c3ccccc3)cc12 [A3.091],4.73
12,CC1=C(C#N)C(=O)N(CCCO)C(=O)/C1=C\c1ccc(-c2cc(C)c(C)cc2[N+](=O)[O-])o1 [A3.037],5.01
13,O=C(N/N=C/c1ccco1)c1ccn[nH]1 [A3.232],4.39
14,Cc1ccc(/C=N/NC(=O)c2cc(O)cc(O)c2)o1 [A3.160],4.58
15,Cc1cc(=O)[nH]c(N/N=C/c2ccco2)n1 [A3.088],4.74
16,CC1=C(C#N)C(=O)N(CC(C)O)C(=O)/C1=C/c1ccc(-c2cccc(Cl)c2C)o1 (stereo not drawn) [A3.175],4.54

row,SMILES,pIC50
1,CC(=O)c1ccc(NC(=O)/C=C/c2ccc(C)o2)cc1 [A3.272],4.26
2,O=C(CNS(=O)(=O)c1ccc2c(c1)OCCO2)N/N=C/c1ccco1 [A3.274],4.25
3,COC(=O)C(NC(=O)c1ccccc1)(Nc1sc2c(c1C#N)CCC(C(C)(C)C)C2)C(F)(F)F (stereo not drawn) [A3.239],4.36
4,O=C(Nc1cccc(/N=C/c2cc(/N=N\c3ccccc3Cl)ccc2O)c1)c1ccco1 [A3.011],5.44
5,O=C1C(Cc2ccc3[nH]ccc3c2)NC(=S)N1c1ccccc1 (stereo not drawn) [A3.223],4.43
6,O=C1C(=Cc2ccc([N+](=O)[O-])o2)C(=O)c2ccccc21 [A3.295],4.17
7,O=C(Cc1cccs1)N/N=C/C=C\c1ccco1 [A3.171],4.55
8,NCCCNC(=O)C1Cc2ncn(Cc3ccccc3[N+](=O)[O-])c2CN1Cc1ccccn1 (stereo not drawn) [A3.326],3.86
9,Cc1ccc(NC(=O)/C(=C\c2ccco2)NC(=O)c2ccccc2Cl)cc1 [A3.086],4.75
10,Cc1ccc(/C=C/C(=O)Nc2ccc(S(=O)(=O)N3CCCC3)cc2)o1 [A3.149],4.61
11,CC(/C=C/c1ccco1)=N\NC(=O)CNc1ccc2ccccc2c1 [A3.173],4.55
12,Cc1c(Cl)cccc1NC(=O)CCC(=O)N/N=C/c1ccco1 [A3.220],4.44
13,COc1ccccc1-n1c(CCC(=O)O)ccc1-c1cccs1 [A3.177],4.54
14,O=C1C(Cc2ccccc2)NC(=S)N1c1ccccc1 (stereo not drawn) [A3.151],4.58
15,CCOC(=O)c1c(C)oc2c1c1c(c3ccccc32)OCN(C2CCS(=O)(=O)C2)C1 (stereo not drawn) [A3.129],4.65
16,C=CCOC(=O)c1cc(-c2ccc(/C=C3/C(=O)N(CCCO)C(=O)C(C#N)=C3C)o2)ccc1Cl [A3.087],4.74

# Same assay, conditions: Table 4, starred values = ID50; read-out: ID50 APN (values marked with *)
row,SMILES,pIC50
1,O=C(N/N=C/c1ccco1)c1ccc(NCc2ccccc2)cc1 [A4.184],3.53
2,O=C(O)CC1S/C(=N/N=C/c2ccco2)NC1=O (stereo not drawn) [A4.138],4.32

# Same assay, conditions: Table 4, unstarred values; read-out: IC50APN
row,SMILES,pIC50
1,COc1cc(-c2cc(C(=O)N/N=C/c3ccco3)[nH]n2)ccc1OC(C)C [A4.114],4.44
2,CCOc1ccc(Br)cc1C(=O)N/N=C/c1ccco1 [A4.079],4.59
3,Cc1ccc(C)n1-c1cccc(C(=O)N/N=C/c2cc(Br)c(O)c(Br)c2)c1 [A4.075],4.60
4,O=C(CCC(=O)Nc1cccc(Cl)c1)N/N=C/c1ccco1 [A4.106],4.47
5,C/C(=N\NC(=O)c1ccccc1)c1ccc2ccccc2c1O [A4.107],4.47
6,O=C(N/N=C/c1ccco1)c1ccc(O)cc1 [A4.042],4.77
7,Cc1cc(C(=O)N/N=C/c2ccc(C)o2)[nH]n1 [A4.100],4.50
8,Cc1ccc(/C=N/NC(=O)COc2ccc(Cl)cc2)o1 [A4.038],4.80
9,Cc1ccc(S(=O)(=O)N2CCC(C(=O)N/N=C/c3ccco3)CC2)cc1 [A4.160],4.16
10,COc1ccc(C(=O)N/N=C/c2ccco2)cc1 [A4.065],4.65
11,Cc1ccc(/C=N/NC(=O)c2ccccc2Cl)o1 [A4.044],4.75
12,O=C(N/N=C/c1cc(Cl)cc([N+](=O)[O-])c1O)c1ccccc1O [A4.005],5.24
13,COc1cc(Br)ccc1OCC(=O)N/N=C/C=C/c1ccco1 [A4.017],4.96
14,COCc1c(C(=O)N/N=C/c2ccc(C)o2)nnn1-c1nonc1N [A4.022],4.90

# Same assay, conditions: Table 6; read-out: IC50APN
row,SMILES,pIC50
1,Cc1ccc(S(=O)(=O)N2CCC(C(=O)N/N=C/c3ccco3)CC2)cc1 [A6.017],4.16

# Same assay, conditions: Table 7; read-out: IC50APN
row,SMILES,pIC50
1,Cc1ccc(S(=O)(=O)CNC(=S)c2ccc(Cl)c(Cl)c2)cc1 [A7.010],4.74

# Same assay, conditions: Table 8, starred values = ID50; read-out: ID50 APN (values marked with *)
row,SMILES,pIC50
1,Cn1c(=O)c2c(ncn2CC(=O)N/N=C/C=C\c2ccco2)n(C)c1=O [A8.037],4.10

# Same assay, conditions: Table 8, unstarred values; read-out: IC50APN
row,SMILES,pIC50
1,COC(=O)N/N=C(C)\C=C\c1ccco1 [A8.011],4.87
2,O=C1C(Cc2ccc3[nH]ccc3c2)NC(=S)N1c1ccccc1 (stereo not drawn) [A8.029],4.43
3,O=C1C(Cc2ccc(O)cc2)NC(=S)N1C1CCCCC1 (stereo not drawn) [A8.019],4.67
4,CC(C)(C)OC(=O)N/N=C\C=C\c1ccco1 [A8.008],4.97

# Same assay, conditions: Table 9, starred values = ID50; read-out: ID50 APN (values marked with *)
row,SMILES,pIC50
1,O=C(OCCN1CCCCC1)C1c2ccccc2Oc2ccccc21 [A9.117],4.02
2,Cc1ccc(/C=C(\NC(=O)c2ccccc2)C(=O)NCCN2CCOCC2)o1 [A9.103],4.26
3,O=C(/C=C/c1ccco1)NCCCN1CCOCC1 [A9.127],3.68

# Same assay, conditions: Table 9, unstarred values; read-out: IC50APN
row,SMILES,pIC50
1,Cc1ccc(/C=N\NC(=O)c2cnccn2)o1 [A9.020],5.01
2,CC1=C(C#N)C(=O)N=C(O)/C1=C\c1ccc(-c2ccc(Cl)cc2Cl)o1 [A9.080],4.52
3,COc1ccc2c(C)nc(Nc3nc(C)c4ccccc4c(=O)n3)nc2c1 [A9.018],5.05
4,O=C(N/C(=C\c1ccco1)C(=O)N1CCCCC1)c1ccco1 [A9.022],4.97
5,Cc1cc(C)n(-c2nnc(N)nn2)n1 [A9.048],4.69
6,O=C(N/N=C\c1ccco1)c1cnccn1 [A9.079],4.52
7,CN(C)CCCN1CCN(c2nc(N(C)CC(=O)O)c3ncn(Cc4ccc([N+](=O)[O-])cc4)c3n2)CC1 [A9.024],4.93
8,CN(C)c1c(Cl)cc(/C(=N/O)N2CCOCC2)cc1Cl [A9.054],4.67
9,Cn1nc(-c2cccs2)nc2c(=O)n(C)c(=O)nc1-2 [A9.059],4.60
10,CCOC(=O)c1c(C)oc2c1c1c(c3ccccc32)OCN(C2CCS(=O)(=O)C2)C1 (stereo not drawn) [A9.057],4.65
11,O=C(O)c1ccc(-n2c(/C=C/c3ccco3)nc3ccccc3c2=O)cc1 [A9.052],4.67
12,COc1nncc(-c2cnnc(SC)n2)n1 [A9.033],4.84

# Same assay, conditions: Table 11; read-out: IC50APN
row,SMILES,pIC50
1,N/C(=N\[N+](=O)[O-])N/N=C/c1ccco1 [A11.001],5.12
2,C=CCN1C(=O)C(C#N)=C(C)/C(=C\c2ccc(-c3cc(C)c(C)cc3[N+](=O)[O-])o2)C1=O [A11.020],4.53

# Same assay, conditions: Table 12; read-out: IC50APN
row,SMILES,pIC50
1,Cc1ccc(NC(=O)/C(=C\c2ccco2)NC(=O)c2ccccc2Cl)cc1 [A12.033],4.75
2,Cc1cc(Cl)ccc1OCCCC(=O)NO [A12.006],5.25
3,O=C(O)SCCC1NC(=S)N(c2ccccc2)C1=O (stereo not drawn) [A12.024],4.92
4,CC(=O)c1cccc(-c2ccc(/C=C3/C(=O)N(CCCO)C(=O)C(C#N)=C3C)o2)c1 [A12.034],4.74
5,O=C(OCCN1CCCCC1)C1c2ccccc2Oc2ccccc21 [A12.070],4.02
6,CC(C)COc1ccc(C(=O)N/C(=C\c2ccco2)C(=O)N2CCOCC2)cc1 [A12.025],4.88
7,CN(C)CCCN1CCN(c2nc(N(C)CC(=O)O)c3ncn(Cc4ccc(C(F)(F)F)cc4)c3n2)CC1 [A12.042],4.64
8,CN(C)CCCN1CCN(c2nc(N(C)CC(=O)O)c3ncn(Cc4ccc([N+](=O)[O-])cc4)c3n2)CC1 [A12.023],4.93
9,COC(=O)c1cccc(-c2ccc(/C=C3\C(=O)N(CCO)C(=O)C(C#N)=C3C)o2)c1 [A12.007],5.20

# Same assay, conditions: Table 13; read-out: IC50APN
row,SMILES,pIC50
1,CC1=C(C#N)C(O)=NC(=O)/C1=C/c1ccc(-c2ccc(Cl)c(C(=O)OC(C)C)c2)o1 [A13.012],4.67
2,CC1=C(C#N)C(=O)N(CC(C)O)C(=O)/C1=C/c1ccc(-c2cccc(Cl)c2C)o1 (stereo not drawn) [A13.014],4.54
3,CCOC(=O)c1ccc(-c2ccc(/C=C3\C(=O)N(CCO)C(=O)C(C#N)=C3C)o2)cc1 [A13.002],5.57
4,CCCOC(=O)c1cc(-c2ccc(/C=C3\C(=O)NC(=O)C(C#N)=C3C)o2)ccc1Cl [A13.016],4.43
